Laboratory results from publication PMC9399058, “Preclinical evaluation of FAP-2286 for fibroblast activation protein targeted radionuclide imaging and therapy” (European Journal of Nuclear Medicine and Molecular Imaging, 2022).
Where two headings read alike, the source gives them in different places.

Columns and labels:
HEK-FAP cells = experiment: Fluorescence microscopy of cellular internalization and retention in HEK-FAP cells; format: cell-based, human; details: 5 nM for 1 h at 37 °C, then compound-free medium up to 72 h
Procedure: HEK-FAP cells were seeded on chamber slides (ibidi) and incubated with 5 nM of AF488-labeled FAP-2286 or FAPI-46 for 1 h at 37 °C. Cells were then washed and further incubated for various timepoints. Cell nuclei were stained with 1 µg/mL Hoechst 33342 dye. Lysosomes were stained using LysoTracker Deep Red (Thermo Fisher Scientific). Images were acquired by using the BZ X800E fluorescence microscope (Keyence) at 40 × magnification.
For fluorescence microscopy assay, HEK-FAP cells were seeded in Poly-D-Lysine-coated 8-well chamber slides at 1 x 10^5 cells per well and incubated for 3 days at 37°C, 5% CO2 in a humified incubator. Attached cells were incubated for 1 hour with 5 nM AF488-labeled FAP-2286 or FAPI-46 in incubation buffer at 37°C. For visualization of lysosomes and late endosomes, cells were stained with LysoTracker DeepRed (Thermo Fisher) for 30 minutes at 37 °C.
Cells were washed three times and incubation buffer was added. Following various incubation periods, cells were washed with HBSS and incubated for 5 min with 1 µg/mL Hoechst 33342 dye for nuclei counterstaining at room temperature.
Fluorescence images were acquired by using a Keyence BZ-X800E fluorescence microscope with 40x magnification.

[1] = SPECT/CT biodistribution and tumor dosimetry of 177Lu-labeled tracers in HEK-FAP tumor-bearing mice; format: in vivo, mouse; details: mouse, in vivo, iv, 30 MBq IV, HEK-FAP mice; for tissue uptake at 72 h: 72 h p.i.
Procedure: (§1) HEK-FAP cell line was generated using the vector pTAR to insert FAP complementary DNA by recombinase-mediated cassette exchange into the pre-tagged HEK293 cells (InSCREENeX). For in vivo HEK-FAP studies, female nude or SCID beige mice (Charles River Laboratories) were subcutaneously implanted with 5 × 10^6 HEK-FAP cells in 150 µL serum-free media:Matrigel (1:1) (Corning). For the patient-derived xenograft (PDX) efficacy study, female NMRI nu/nu mice (Janvier Labs) were subcutaneously implanted with Sarc4809 fragments (Experimental Pharmacology & Oncology Berlin-Buch). All animal experiments were carried out under licenses approved by the respective authorities and in compliance with guidelines on animal welfare.
(§2) Thirty megabecquerels (30 MBq/nmol) ^111In-FAP-2286 (n = 9) or ^111In-FAPI-04 (n = 6) was injected intravenously (IV) into HEK-FAP tumor-bearing mice and the distribution of the radiotracers was assessed using the NanoSPECT/computed tomography (CT) system (Mediso). For PET imaging, 10 MBq of ^68Ga-FAP-2286 or ^68Ga-FAPI-46 (10 MBq/nmol) was given IV into HEK-FAP tumor-bearing mice (n = 3) followed by PET/CT analysis using the nanoScan PET/CT system (Mediso). For SPECT imaging of ^177Lu-labeled FAP-2286 or ^177Lu-labeled FAPI-46, 30 MBq was administered IV (30 MBq/nmol; n = 3) and the distribution of the radiotracers was assessed using the nanoScan SPECT/CT system (Mediso).
(§3) The animal studies were conducted in different laboratories. ^111In-Imaging and efficacy studies using the HEK-FAP model and different doses of ^177Lu-FAP-2286 as well as the Sarc4809 PDX efficacy study took place at Berlin Experimental Imaging Center (BERIC, Germany). The Sarc4809 model was originally derived from a primary lesion of undifferentiated pleomorphic sarcoma. These studies were performed in either female swiss nude (Charles River Laboratories, France – ^111In-Imaging), NMRI nude (Janvier Labs, France – PDX efficacy study) or SCID beige mice (Charles River Laboratories, Germany - ^111In-Imaging). ^68Ga-Imaging and comparative studies with ^177Lu labeled FAP-2286 and FAPI-46 were performed at Minerva Imaging ApS, Denmark using female athymic nude mice (Charles River Laboratories, Germany). For all experiments animals were ordered with an age of approximately 6 weeks. Animals were allowed an acclimatization period of at least one week prior to inoculation. Animals were housed in an animal room with 12 hours light and 12 hours darkness with free access to food and water. A maximum number of 5 animals were housed in the same cage, cages were equipped with nesting material and plastic or paper houses for hiding. Each cage was labeled with study ID, group and animal numbers and test compound. For efficacy studies animals were randomized according to tumor size. Animals were checked daily for any signs of illness or abnormal behavior. Main humane endpoints were defined as tumor volumes > 1500 mm^3, tumor burden > 10% of animal weight, body weight loss >15% and tumor ulceration. When reaching one of these criteria the animal was sacrificed by cervical dislocation. All animal experiments were approved either by the Regional Office for Health and Social Affairs Berlin (LAGeSo), Germany or the National Animal Experiments Inspectorate under the Ministry of Environment and Food of Denmark.
(§4) Imaging and image analysis were performed as described. During the scan, mice were kept under isoflurane anesthesia, and body temperature was maintained under warm air. The following acquisition parameters were used for the respective imaging modality.
(§5) For quantification, VivoQuant (InviCRO) was used to draw regions of interest (ROIs) in relevant tissues, with a ROI drawn over the left ventricle of the heart to serve as blood pool surrogate. […]

HEK-FAP xenografts = experiment: as above; format: in vivo, mouse
Procedure: as §1, §2, §3, §4, §5

Sarc4809 PDX = experiment: Efficacy study in the Sarc4809 sarcoma PDX model; format: in vivo, mouse; details: 30 MBq single IV dose, Sarc4809 mice
Procedure: as §1
A single dose of the indicated treatments was administered IV on day 0, with vehicle (saline), nonradioactive ^natLu-FAP-2286, 30 or 60 MBq ^177Lu-FAP-2286 (30 MBq/nmol and 60 MBq/nmol, respectively), or 30 MBq ^177Lu-FAPI-46 (30 MBq/nmol). Tumor length and width were measured by caliper, and tumor volume was calculated as 0.5 × (length × width^2). Tumor growth and body weight were monitored 3 times weekly. […]
Calculation of relative tumor volume. Relative tumor volume (RTV as %) is calculated according to the following formula: RTV = (Tᵢ/ T0) × 100, where Tᵢ is the tumor volume at day i and T0 is the tumor volume at day 0. […]

neoplastic lesions = system: neoplastic lesions; set-up: method as in PMID 34168013; details: first-in-human experience of 11 patients ref 51; cited from earlier work
HEK-FAP xenograft tumors = experiment: SPECT/CT biodistribution of 111In-labeled tracers in HEK-FAP tumor-bearing mice; format: in vivo, mouse; details: every 24 h; HEK-FAP mouse tumor model; 111In-FAPI-04 (Supplementary Fig. S6)
Procedure: as §1, §2, §3, §4, §5

Structure (SMILES): CCCCCC(=O)N[C@H]1CSCc2cc(CSCCNC(=O)CN3CCN(CC(=O)O)CCN(CC(=O)O)CCN(CC(=O)O)CC3)cc(c2)CSC[C@@H](C(=O)N[C@@H](CCCCNC(=O)c2ccc(-c3c4ccc(=N)c(S(=O)(=O)O)c-4oc4c(S(=O)(=O)O)c(N)ccc34)c(C(=O)O)c2)C(N)=O)NC(=O)[C@H](Cc2ccccc2)NC(=O)[C@H](CCC(N)=O)NC(=O)[C@H]([C@@H](C)O)NC(=O)[C@@H]2CCCN2C(=O)[C@@H]2CCCN2C1=O [AF488-FAP-2286]
- cellular retention by fluorescence microscopy (HEK-FAP cells): retained in HEK-FAP cells and secluded in endosomes out to 72 h

Structure (SMILES): CCCCCC(=O)N[C@H]1CSCc2cc(CSCCNC(=O)CN3CCN(CC(=O)O)CCN(CC(=O)O)CCN(CC(=O)O)CC3)cc(c2)CSC[C@@H](C(=O)O)NC(=O)[C@H](Cc2ccccc2)NC(=O)[C@H](CCC(N)=O)NC(=O)[C@H]([C@@H](C)O)NC(=O)[C@@H]2CCCN2C(=O)[C@@H]2CCCN2C1=O [^177Lu-FAP-2286, metal not drawn]
- tissue uptake at 3 h ([1]; 3 h after injection, read-out: kidney accumulation): 2.2 %ID/g
- tissue uptake at 3 h ([1]; 3 h p.i., n=3, read-out: tumor uptake): 21.1 %ID/g
- tissue uptake at 72 h ([1]; n=3, read-out: tumor uptake): 16.4 %ID/g
- tissue uptake at 72 h ([1]; read-out: kidney accumulation): 0.6 %ID/g
- tumor retention (HEK-FAP xenografts; HEK-FAP mouse model, SPECT/CT image quantification): ≥ 72 h
- tumor absorbed dose (HEK-FAP xenografts; HEK-FAP tumor self-dose): 2.8 Gy/MBq
- time-integrated activity coefficient (TIAC), tumor (HEK-FAP xenografts; HEK-FAP tumor, calculated from SPECT/CT, extrapolated beyond 72 h): 11.2 MBq*h/MBq
- Max. BWL, Day 2 (Sarc4809 PDX): 3%
- SPECT/CT biodistribution in patients (neoplastic lesions): significant tumor uptake and long retention

Structure (SMILES): N#C[C@@H]1CC(F)(F)CN1C(=O)CNC(=O)c1ccnc2ccc(OCCCN3CCN(C(=O)CN4CCN(CC(=O)O)CCN(CC(=O)O)CCN(CC(=O)O)CC4)CC3)cc12 [FAPI-04, reference compound]
- tumor clearance rate (HEK-FAP xenograft tumors): approximately 50%
